The molecules below were run on HIV (assay: Anti-HIV activity (MT-4 cells, MTT)). Conditions: Human immunodeficiency virus 1, MT4, 96 h, cultured 4 days.
Type: cell-based
Procedure: Serial dilutions of a test sample were prepared in a 96-well microplate (50 μL/well). 2.5×10^5 cells/mL of a MT-4 cell suspension was dispensed at 100 μL/well to the plate containing the test sample. Then, an HIV virus solution was dispensed at 50 μL/well. The plate was mixed with a plate mixer and cultured for 4 days in a CO2 incubator. An MTT (3-(4,5-dimethylthiazol-2-yl)-2,5-diphenyltetrazolium bromide) solution was dispensed at 30 μL/well. The plate was reacted for 1 hour in a CO2 incubator. 150 μL of the supernatant was removed from each well so as not to take up the cells. 150 μL of a cell lysis solution was added to each well and well mixed with a plate mixer until the cells were completely lysed. The absorbance of the mixed plate was measured at two wavelengths of 560 nm and 690 nm with a microplate reader.

Point of comparison: `CCN1C(=O)c2c(O)c(=O)c(C(=O)NCc3nn(C)cc3Cl)cn2N2CCCC[C@@H]12` [II-135], EC50 18 nM. Against it:
- C[C@@H]1CCN2[C@@H](C1)N(C)C(=O)c1c(O)c(=O)c(C(=O)NCc3c(F)cc(F)cc3F)cn12 [II-130] — 140-fold lower, 0.13 nM
- CCN1C(=O)c2c(O)c(=O)c(C(=O)NCc3ccc(F)cc3F)cn2N2[C@H](C)CC[C@@]12C [II-131] — 37-fold lower, 0.49 nM
- CCN1C(=O)c2c(O)c(=O)c(C(=O)NCc3ccc(F)cc3F)cn2N2CC[C@@H](C(F)(F)F)C[C@@H]12 [II-132] — 35-fold lower, 0.51 nM
- CCN1C(=O)c2c(O)c(=O)c(C(=O)NCc3cccc(Cl)c3)cn2N2CCCC[C@@H]12 [II-134] — 6-fold lower, 3 nM
- CC[C@@H](NC(=O)c1cn2c(c(O)c1=O)C(=O)N(CC)[C@@H]1CCCCN12)c1ccc(F)cc1F [II-137] — 1.8-fold higher, 33 nM
- C[C@@H]1CC[C@H]2N(C)C(=O)c3c(O)c(=O)c(C(=O)NCc4ccc(Cl)cc4F)cn3N12 [II-138] — 8.6-fold lower, 2.1 nM
- CN1C(=O)c2c(O)c(=O)c(C(=O)NCc3c(F)cc(F)cc3F)cn2N2CC3(CC3)C[C@@H]12 [II-139] — 29-fold lower, 0.62 nM
- CCN1C(=O)c2c(O)c(=O)c(C(=O)NCc3ccc(Cl)cc3)cn2N2CCCC[C@@H]12 [II-140] — 5-fold lower, 3.6 nM
- CCN1C(=O)c2c(O)c(=O)c(C(=O)NCc3ncc(F)cc3F)cn2N2CCCC[C@@H]12 [II-141] — 28-fold lower, 0.65 nM
- CCN1C(=O)c2c(O)c(=O)c(C(=O)NCc3cc(F)cc(F)c3F)cn2N2CCCC[C@@H]12 [II-142] — 24-fold lower, 0.74 nM
- CCN1C(=O)c2c(O)c(=O)c(C(=O)NCc3ccc(F)cc3F)cn2N2CCN(c3ccccc3)C[C@@H]12 [II-143] — 5.6-fold lower, 3.2 nM
- CCN1C(=O)c2c(O)c(=O)c(C(=O)NCc3ccc(F)cc3F)cn2N2[C@@H]3COC[C@@H]3C[C@@H]12 [II-145] — 26-fold lower, 0.68 nM
- CCN1C(=O)c2c(O)c(=O)c(C(=O)NCc3ccc(F)cc3F)cn2N2CCN(c3ncccn3)C[C@@H]12 [II-146] — 11-fold lower, 1.6 nM
- O=C(NCc1ccc(F)cc1F)c1cn2c(c(O)c1=O)C(=O)N1CCCC[C@]13CCCCN23 [II-147] — 27-fold lower, 0.66 nM
- CCN1C(=O)c2c(O)c(=O)c(C(=O)NCc3c(F)cccc3Cl)cn2N2CCCC[C@@H]12 [II-148] — 36-fold lower, 0.5 nM
- CCN1C(=O)c2c(O)c(=O)c(C(=O)NCc3ccc(F)cc3F)cn2N2C[C@@]3(CCOC3)C[C@@H]12 [II-149] — 15-fold lower, 1.2 nM
- CCN1C(=O)c2c(O)c(=O)c(C(=O)NCc3ccc(F)cc3F)cn2N2[C@H](COC)CCC[C@@H]12 [II-150] — 33-fold lower, 0.55 nM
- CN1C(=O)c2c(O)c(=O)c(C(=O)NCc3cccc(Cl)c3F)cn2N2CC[C@H](C(F)(F)F)C[C@@H]12 [II-151] — 11-fold lower, 1.6 nM
- CN1C(=O)c2c(O)c(=O)c(C(=O)NCc3cccc(Cl)c3F)cn2N2C[C@@H]3CCC[C@@H](O3)[C@@H]12 [II-152] — 26-fold lower, 0.7 nM
- CCN1C(=O)c2c(O)c(=O)c(C(=O)NCc3ccc(F)cc3F)cn2N2Cc3ccc(F)cc3[C@@]12C [II-154] — 27-fold lower, 0.67 nM
- CCN1C(=O)c2c(O)c(=O)c(C(=O)NCc3ccc(F)cc3F)cn2N2[C@H](C)c3cc(F)ccc3[C@@H]12 [II-155] — 15-fold lower, 1.2 nM
- CN1C(=O)c2c(O)c(=O)c(C(=O)NCc3c(F)cc(F)cc3F)cn2N2C[C@H]3C[C@H](C3)[C@@H]12 [II-158] — 67-fold lower, 0.27 nM
- CCN1C(=O)c2c(O)c(=O)c(C(=O)NCc3ccc(F)cc3F)cn2N2CCCC[C@@]12CC [II-159] — 32-fold lower, 0.56 nM

Source: patent US11649236B2, “Polycyclic carbamoylpyridone derivative” (Shionogi & Co., Ltd., priority 2018, dated 2023)
